In US8920851B2, “Treatment of neurodegenerative diseases” (Velacor Therapeutics Pty Ltd, priority 2006, dated 2014):
“Also recorded” adds a separate entry of the source.

Legend:
PHF-Tau = settings: 100 μM, 3 hours
Protocol: In Vitro: 2×10^5 SY5Y or BE2M17 cells were plated to each well in a Falcon 6-well plate, either over coated or uncoated surfaces, and were allowed to attached overnight at 5% CO2/37° C. in complete growth medium (as described above). […] Cells were cultured over Falcon 6-well plates with surfaces coated either with 0.1% gelatin (Sigma, St Louis, Mo., USA), matrigel (cat #354234, BD, NSW, Australia) or 0.5 μg/ml fibronectin (Sigma, St Louis, Mo., USA).
Lysates preparation and Immunoblotting: Cells were washed twice in cold PBS and were lysed in 150 μl of cold RIPA buffer (containing 10% glycerol, 20 mM Tris, 137 mM NaCl, 0.1% SDS, 0.05% IGEPAL, 1% Triton X-100, 2 mM EDTA, 10% NaV, 2% NaF and 4× protease inhibitor), similarly, brain tissues were homogenised in dry ice using mortar and pestle, and lysed in 150 μl RIPA buffer. Samples were incubated on ice for 30 minutes, followed by centrifugation at 13000 rpm/ 10 minutes/ 4° C. Supernantant was collected and protein estimation was calculated for each sample by using BCA reagent (Sigma). Equal amounts of protein were loaded into each lane of a 10% SDS-polyacrylamide gel. The proteins were transferred onto PVDF (Millipore) membranes and were blocked with 5% skim milk blotto for 2 hours. After blocking the membrane, primary antibodies: either anti-human PHF-Tau (AT100 at 1:200, AT180 at 1:1000, and AT270 at 1:2500) or anti-human Tau (HT-7 at 1:1000) were incubated overnight at 4° C. in 5% skim milk blotto. Prior to secondary antibody incubation, membranes were rinsed 3× followed by 3×5 minutes washed in Tris-Buffered Saline with 0.01% Tween at room temperature. Followed by 1 hour incubation of secondary antibody polyclonal goat anti-mouse (Dako, Denmark) coupled to horse radish peroxidase (HRP) at 1:10000 dilutions in 5% skim milk blotto/room temperature. Membranes were washed as described above and were detected by using Amersham ECL western blotting detection reagent (Amersham Bioscience, Buckinghamshire, UK). Membranes were stripped using 2% SDS/β-Mercaptoethanol stripping buffer and reprobed for tubulin (Promega) to confirm protein loading.

Akt = Akt phosphorylation by immunoblot in PC3 prostate carcinoma cells; assay type: cell-based, human; settings: for Akt phosphorylation at Ser473: PC3 cells, 500 μM of each compound, various timepoints
Protocol: Such dephosphorylation may be the result of a direct inhibitory effect on the Akt protein itself, or alternatively, can be similarly achieved indirectly by boosting a negative regulator or inhibiting a positive regulator of Akt phosphorylation. […] PC3 prostate carcinoma cells were plated in 100 mm dishes, and when 70-80% confluent serum starved overnight. […] Cells were lysed, and the level of Akt Ser473 phosphorylation determined by immunoblot analysis with an activation specific antibody, and comparison made to levels of Akt protein expressed. To determine the effect on purified Akt, similarly plated but untreated PC3 cells were lysed in RIPA (minus phosphatase inhibitors), a stringent cell lysis buffer that minimizes maintenance of protein-protein complexes. […] The immunoprecipitated protein was then resolved and the level of activated Akt determined by immunoblot analysis as described above.
A reduction in net Akt activity could be achieved indirectly by either preventing the initial Akt phosphorylation, or alternatively, increasing Akt dephosphorylation [Kohn et. al. 1996]. […] Initially okadaic acid, a polyether toxin from red-tide algae (and causative agent of diarrhoetic shellfish poisoning) which inhibits the phospho-protein phosphatases PP1 and PP2A, two phosphatases implicated in the regulation of Akt dephosphorylation was used [Fernandez et al., 2002]. 5×10^5 PC3 prostate carcinoma cells were plated per well of a 6 well plate, allowed attach for 8 h, and then serum starved overnight. […] Lysed cells were resolved by SDS-PAGE, then probed for Akt phosphorylation at the Ser473 residue by immunoblot analysis with an antibody that specifically recognizes Akt when phosphorylated at this site, and comparison made with the total levels of Akt protein expressed (FIG. 2A).
This panel included tautamycin 500 nM (PP1), okadaic acid 500 nM (low dose PP2A>PP1), endothall A (PP2A) 100 μM, calyculin A 2 nM (low dose PP1>PP2A), calyculin A 10 nM (high dose inhibits PP1 and PP2A) and cyclosporine A 400 ng/ml (PP2B). […] Again, lysed cells were resolved by SDS-PAGE, then membranes probed for Akt phosphorylation at the Ser^473 residue by immunoblot analysis with an antibody that specifically recognizes Akt when phosphorylated at this site, and comparison made with the total levels of Akt protein expressed.
5×10^5 PC3 prostate carcinoma cells were plated per well in a 6-well plate, allowed to attach for 8 h, and then serum starved overnight. […] Equal amounts of whole cell lysates were resolved, and then subjected to immunoblot analysis to determine the level of phosphorylated Akt Ser^473. Comparison was then made with the total level of Akt protein expressed.
The phosphorylation status of Akt in whole cell lysates was determined using activation specific antibodies.
Other inorganic (sodium selenite, selenium dioxide, selenium sulphide and selenious acid) and organic (methylselenocysteine, selenocystine) selenium species were tested for their ability to affect Akt activation. All forms were dissolved in water with the exception of selenium sulphide which was solubilised in DMSO, and added to serum starved PC3 cells at a concentration of 500 μM for 1 hour, Whole cell lysates were then resolved, and the activation status of Akt determined by immunoblotting with an antibody that specifically recognizes Akt when phosphorylated at the Ser473 site, as well as the total level of Akt expression (pan Akt). To quantify the degree of Akt activation, immunoblots were digitalised, and the ratio of phosphorylated Akt to total Akt determined by densitometry.

[1] = BE2M17 cells on fibronectin, plastic (uncoated) and matrigel
[2] = serum free PC3 cells, 500 μM, various times

SMILES: O=[Se](=O)(O)O [sodium selenate]
- PHF-Tau signal, clone AT100 (68 kDa) (PHF-Tau; BE2M17 cells on fibronectin and matrigel): PHF-Tau signal appeared to be reduced
- Tau expression, clone HT-7 (68, 64, 57 kDa) (PHF-Tau; BE2M17 cells on fibronectin): appeared to reduce Tau expression
- PHF-Tau signal, clone AT180 (71 and 67 kDa) (PHF-Tau; [1]): weaker PHF-Tau signal
- PHF-Tau signal, clone AT270 (66 and 63 kDa) (PHF-Tau; [1]): weaker PHF-Tau signal
- PHF-Tau signal, clone AT270, cells on matrigel (PHF-Tau; BE2M17 cells on matrigel): only a slight difference between selenate treated and non-treated cells
- anti-Tau signal, clone HT-7 (60 kDa) (PHF-Tau; SY5Y cells on fibronectin): weaker signal for anti-Tau
- PHF-Tau signal, clone AT270 (70 kDa) (PHF-Tau; SY5Y cells on gelatin and fibronectin): weaker PHF-Tau signal
- Akt phosphorylation at Ser473 (Akt): profoundly inhibited Akt phosphorylation
- Akt phosphorylation at Ser473 (Akt; listed as selenate): inhibited Akt phosphorylation
- Akt Ser473 phosphorylation (Akt; intact serum starved PC3 cells, sodium selenate 500 μM, 1 h): profound reduction in Akt phosphorylation; also recorded: markedly reduces the chronically high levels of Akt phosphorylation; also recorded: marked decrease in the phosphorylation of Akt; also recorded: markedly reduced the level of Akt phosphorylation
- phosphorylation of Akt at Ser473 and Thre308, after the initial boost (Akt; [2]): marked and prolonged deactivation
- total cellular Akt levels (pan Akt) (Akt; [2]): remained essentially unchanged
- phosphorylation of Akt at Ser473 and Thre308, early (Akt; serum free PC3 cells, 500 μM, within 10 minutes of exposure): transient boost in phosphorylation of Akt
- Akt activation: ratio of phosphorylated Akt to total Akt versus control (Akt; serum starved PC3 cells, 500 μM, 1 hour, densitometry): inhibits activation of Akt
- reduction in Akt phosphorylation at Ser473 compared to untreated cells (Akt; serum starved PC3 cells, 500 μM, 1 hour, densitometry, p<0.05): greater than 80%
